Experiments:
[1] = system: crabgrass; experiment: Test B pre/postemergence crabgrass; type: in vivo, Digitaria sanguinalis
Procedure, shortened: (§1)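 Herbicidal effect was estimated by eye on a ten-point control scale after plants spent twelve to sixteen days in a greenhouse following soil or foliar treatment. Foliar sprays targeted plants at one to four leaves; all doses were formulated in a non-phytotoxic solvent with surfactant.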

[2] = system: soybean; experiment: Test B pre/postemergence soybean; type: in vivo, Glycine max
Procedure, shortened: as §1

[3] = system: giant foxtail; experiment: Test B pre/postemergence giant foxtail; type: in vivo, Setaria faberii
Procedure, shortened: as §1

[4] = system: purple nutsedge; experiment: Test B pre/postemergence purple nutsedge; type: in vivo, Cyperus rotundus
Procedure, shortened: as §1

[5] = system: cocklebur; experiment: Test B pre/postemergence cocklebur; type: in vivo, Xanthium strumarium
Procedure, shortened: as §1

[6] = system: surinam grass; experiment: Test B pre/postemergence surinam grass; type: in vivo, Brachiaria decumbens
Procedure, shortened: as §1

[7] = system: blackgrass; experiment: Test B pre/postemergence blackgrass; type: in vivo, Alopecurus myosuroides
Procedure, shortened: as §1

[8] = system: rice; experiment: Test B flood test rice; type: in vivo, Oryza sativa
Procedure, shortened: (§2)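 Flood test on plants grown to the 2-leaf stage; treated plants kept in greenhouse twelve to sixteen days, then visually rated against controls on a 0 (no effect) to 10 (complete control) scale.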

[9] = system: velvetleaf; experiment: Test B pre/postemergence velvetleaf; type: in vivo, Abutilon theophrasti
Procedure, shortened: as §1

[10] = system: sugar beet; experiment: Test B pre/postemergence sugar beet; type: in vivo, Beta vulgaris
Procedure, shortened: as §1

[11] = system: pigweed; experiment: Test B pre/postemergence pigweed; type: in vivo, Amaranthus retroflexus
Procedure, shortened: as §1

[12] = system: rape; experiment: Test B pre/postemergence rape; type: in vivo, Brassica napus
Procedure, shortened: as §1

[13] = system: morningglory; experiment: Test B pre/postemergence morningglory; type: in vivo, Ipomoea hederacea
Procedure, shortened: as §1

[14] = system: wheat; experiment: Test B pre/postemergence wheat; type: in vivo, Triticum aestivum
Procedure, shortened: as §1

[15] = system: corn; experiment: Test B pre/postemergence corn; type: in vivo, Zea mays
Procedure, shortened: as §1

[16] = system: duck salad; experiment: Test B flood test duck salad; type: in vivo, Heteranthera limosa
Procedure, shortened: as §2

[17] = system: bedstraw; experiment: Test B pre/postemergence bedstraw; type: in vivo, Galium aparine
Procedure, shortened: as §1

[18] = system: smallflower flatsedge; experiment: Test B flood test smallflower flatsedge; type: in vivo, Cyperus difformis
Procedure, shortened: as §2

[19] = system: bamyardgrass; experiment: Test B flood test barnyardgrass; type: in vivo, Echinochloa crus-galli
Procedure, shortened: as §2

[20] = system: wild oat; experiment: Test B pre/postemergence wild oat; type: in vivo, Avena fatua
Procedure, shortened: as §1

[21] = Preemergence, Rate 62 g/ha, scale of 0 to 10 where 0 is no effect and 10 is complete control
[22] = Preemergence, Rate 250 g/ha, scale of 0 to 10 where 0 is no effect and 10 is complete control
[23] = Preemergence, Rate 500 g/ha, scale of 0 to 10 where 0 is no effect and 10 is complete control
[24] = Rate 62 g/ha, Postemergence, scale of 0 to 10 where 0 is no effect and 10 is complete control
[25] = Rate 125 g/ha, Preemergence, scale of 0 to 10 where 0 is no effect and 10 is complete control
[26] = Rate 500 g/ha, Postemergence, scale 0 to 10, 0 no effect, 10 complete control
[27] = Rate 125 g/ha, Postemergence, scale 0 to 10
[28] = Rate 62 g/ha, headed Pre-emergence (flood test species), scale 0 to 10 (0 no effect, 10 complete control)
[29] = Rate 125 g/ha, Pre-emergence, flood test species, scale 0 to 10 where 0 is no effect and 10 is complete control
[30] = Rate 250 g/ha, Pre-emergence, flood-test species, scale 0 to 10, 0 is no effect, 10 is complete control
[31] = Rate 500 g/ha, Pre-emergence, flood test species, scale 0 to 10 (0 no effect, 10 complete control)

Cc1ccccc1-n1c(=O)on(C(=O)N(c2ccc(F)cc2)C(C)C2CC2)c1=O (centres unmarked) [Compound 240]
Crabgrass plant response rating [1, 21]: 2 | Crabgrass plant response rating [1, 22]: 9 | Plant response rating, Crabgrass [1, 23]: 9 | Crabgrass plant response rating [1, 24]: 0 | Crabgrass plant response rating [1, 25]: 4 | Plant response rating (0 to 10; 0 is no effect, 10 is complete control), Crabgrass ([1]; Rate 250 g/ha, Postemergence): 2 | Crabgrass plant response rating [1, 26]: 4 | Soybean plant response rating [2, 21]: 0 | Soybean plant response rating [2, 22]: 0 | Plant response rating, Soybean [2, 23]: 0 | Soybean plant response rating [2, 24]: 0 | Soybean plant response rating [2, 25]: 0 | Soybean plant response rating [2, 26]: 3 | Giant foxtail plant response rating [3, 21]: 5 | Giant foxtail plant response rating [3, 22]: 10 | Plant response rating, Giant foxtail [3, 23]: 10 | Giant foxtail plant response rating [3, 24]: 0 | Giant foxtail plant response rating [3, 25]: 5 | Plant response rating (0 to 10; 0 is no effect, 10 is complete control), Giant foxtail ([3]; Rate 250 g/ha, Postemergence): 0 | Giant foxtail plant response rating [3, 26]: 2 | Nutsedge plant response rating [4, 22]: 0 | Nutsedge plant response rating [4, 24]: 0 | Plant response rating (0 to 10; 0 is no effect, 10 is complete control), Nutsedge ([4]; Rate 250 g/ha, Postemergence): 0 | Nutsedge plant response rating [4, 26]: 0 | Cocklebur plant response rating [5, 21]: 0 | Cocklebur plant response rating [5, 22]: 0 | Plant response rating, Cocklebur [5, 23]: 0 | Cocklebur plant response rating [5, 24]: 0 | Cocklebur plant response rating [5, 27]: 1 | Cocklebur plant response rating [5, 25]: 0 | Plant response rating (0 to 10; 0 is no effect, 10 is complete control), Cocklebur ([5]; Rate 250 g/ha, Postemergence): 1 | Cocklebur plant response rating [5, 26]: 1 | B. signalgrass plant response rating [6, 21]: 0 | B. signalgrass plant response rating [6, 22]: 0 | Plant response rating, B. signalgrass [6, 23]: 3 | B. signalgrass plant response rating [6, 24]: 0 | B. signalgrass plant response rating ([6]; Rate 125 g/ha, Postemergence, scale 0 (no effect) to 10 (complete control)): 0 | B. signalgrass plant response rating [6, 25]: 0 | Plant response rating (0 to 10; 0 is no effect, 10 is complete control), B. signalgrass ([6]; Rate 250 g/ha, Postemergence): 0 | B. signalgrass plant response rating [6, 26]: 0 | Blackgrass plant response rating [7, 21]: 0 | Blackgrass plant response rating [7, 22]: 0 | Plant response rating, Blackgrass [7, 23]: 2 | Blackgrass plant response rating [7, 24]: 0 | Blackgrass plant response rating [7, 27]: 0 | Blackgrass plant response rating [7, 25]: 0 | Plant response rating (0 to 10; 0 is no effect, 10 is complete control), Blackgrass ([7]; Rate 250 g/ha, Postemergence): 0 | Blackgrass plant response rating [7, 26]: 5 | Rice plant response rating [8, 28]: 0 | Rice plant response rating [8, 29]: 0 | Rice plant response rating [8, 30]: 0 | Rice plant response rating [8, 31]: 0 | Velvetleaf plant response rating [9, 21]: 0 | Velvetleaf plant response rating [9, 22]: 0 | Plant response rating, Velvetleaf [9, 23]: 2 | Velvetleaf plant response rating [9, 24]: 0 | Velvetleaf plant response rating [9, 25]: 0 | Velvetleaf plant response rating [9, 26]: 3 | Sugarbeets plant response rating [10, 21]: 0 | Sugarbeets plant response rating [10, 22]: 0 | Plant response rating, Sugarbeets [10, 23]: 0 | Sugarbeets plant response rating [10, 24]: 0 | Sugarbeets plant response rating [10, 25]: 0 | Sugarbeets plant response rating [10, 26]: 3 | Redroot pigweed plant response rating [11, 21]: 0 | Redroot pigweed plant response rating [11, 22]: 0 | Plant response rating, Redroot pigweed [11, 23]: 0 | Redroot pigweed plant response rating [11, 24]: 0 | Redroot pigweed plant response rating [11, 25]: 0 | Plant response rating (0 to 10; 0 is no effect, 10 is complete control), Redroot pigweed ([11]; Rate 250 g/ha, Postemergence): 2 | Redroot pigweed plant response rating [11, 26]: 7 | Rape plant response rating [12, 21]: 0 | Rape plant response rating [12, 22]: 0 | Plant response rating, Rape [12, 23]: 0 | Rape plant response rating [12, 24]: 0 | Rape plant response rating [12, 25]: 0 | Plant response rating (0 to 10; 0 is no effect, 10 is complete control), Rape ([12]; Rate 250 g/ha, Postemergence): 0 | Rape plant response rating [12, 26]: 0 | Morningglory plant response rating [13, 21]: 0 | Morningglory plant response rating [13, 22]: 0 | Plant response rating, Morningglory [13, 23]: 0 | Morningglory plant response rating [13, 24]: 5 | Morningglory plant response rating [13, 25]: 0 | Plant response rating (0 to 10; 0 is no effect, 10 is complete control), Morningglory ([13]; Rate 250 g/ha, Postemergence): 10 | Morningglory plant response rating [13, 26]: 10 | Wheat plant response rating [14, 21]: 0 | Wheat plant response rating [14, 22]: 0 | Plant response rating, Wheat [14, 23]: 0 | Wheat plant response rating [14, 24]: 0 | Wheat plant response rating [14, 25]: 0 | Wheat plant response rating [14, 26]: 2 | Corn plant response rating [15, 21]: 0 | Corn plant response rating [15, 22]: 0 | Plant response rating, Corn [15, 23]: 0 | Corn plant response rating [15, 24]: 0 | Corn plant response rating [15, 27]: 0 | Corn plant response rating [15, 25]: 0 | Plant response rating (0 to 10; 0 is no effect, 10 is complete control), Corn ([15]; Rate 250 g/ha, Postemergence): 0 | Corn plant response rating [15, 26]: 0 | Ducksalad plant response rating [16, 28]: 0 | Ducksalad plant response rating [16, 29]: 0 | Ducksalad plant response rating [16, 30]: 0 | Ducksalad plant response rating [16, 31]: 0 | Bedstraw plant response rating [17, 21]: 0 | Bedstraw plant response rating [17, 22]: 0 | Plant response rating, Bedstraw [17, 23]: 0 | Bedstraw plant response rating [17, 24]: 0 | Bedstraw plant response rating [17, 27]: 3 | Bedstraw plant response rating [17, 25]: 0 | Plant response rating (0 to 10; 0 is no effect, 10 is complete control), Bedstraw ([17]; Rate 250 g/ha, Postemergence): 3 | Bedstraw plant response rating [17, 26]: 5 | S. Flatsedge plant response rating [18, 28]: 0 | S. Flatsedge plant response rating [18, 29]: 0 | S. Flatsedge plant response rating [18, 30]: 0 | S. Flatsedge plant response rating [18, 31]: 0 | Barnyardgrass plant response rating [19, 28]: 0 | Barnyardgrass plant response rating [19, 29]: 0 | Barnyardgrass plant response rating [19, 30]: 0 | Barnyardgrass plant response rating [19, 31]: 0 | Wild oats plant response rating [20, 21]: 0 | Wild oats plant response rating [20, 22]: 0 | Plant response rating, Wild oats [20, 23]: 0 | Wild oats plant response rating [20, 24]: 0 | Wild oats plant response rating [20, 25]: 0 | Wild oats plant response rating [20, 26]: 2

— patent US6737383B1, “Herbicidal oxadiazolidines” (priority 1999, dated 2004)
